# Measurements taken from patent US20150224164A1, “TREATMENT OF AUTISM SPECTRUM DISORDERS USING GLYCYL-L-2-METHYLPROLYL-L-GLUMATIC ACID” (Neuren Pharmaceuticals Limited, priority 2013, published 2015).
# Entries after “also recorded” stand apart in the source; their conditions may differ. Where a SMILES comes first, the peptide text is derived from it.
# How the values were obtained:
# GFAP-positive astrocytes = experiment: Astrocytosis, GFAP staining in aged brains; assay type: in vivo, rat; conditions: 18-month old rats; i.p.; 3 d; particularly 0.12 and 12 mg/kg; p<0.05
# Experimental: To carry out these studies, tissues were fixed and embedded in paraffin and sections obtained using standard methods. Coronal sections (6 μm) containing the level of the hippocampus were cut and mounted on chrome-alum-coated slides for staining. The sections were deparaffinized in xylene, […] in a series of ethanol and incubated in 0.1 M phosphate buffered saline (PBS). Primary antibodies against glial fibrillary acidic protein (GFAP) and proliferating cell nuclear antigen (PCNA) were used to mark reactive glial cells and cells undergoing apoptosis and proliferation, respectively. For antigen unmasking (caspase-3 and PCNA staining), sections were heated in 10 mM sodium citrate buffer (pH 6.0) for 1 min at high power. All sections were pretreated with 1% H2O2 in 50% methanol for 30 min to quench the endogenous peroxidase activity. […] The number of PCNA positive cells was counted in the subventricular zone and the GFAP positive cells was scored in the cerebral cortex. We also evaluated effects of G-2-MePE on astrocytosis in the CA4 sub-region of the hippocampus in aged rats. […] GFAP-positive cells were counted using a computerised program (Discovery 1). G-2-MePE was administered intra-peritoneally and the numbers of GFAP-positive cells were assessed 3d after the injection. […]
# [1] = tested on: neurons in the CA3 region of the hippocampus; experiment: Neuron soma size in hippocampus CA3 (Example 10); assay type: in vivo, mouse
# Experimental: We also measure the effect of G-2-MePE treatment on neuron soma size in the hippocampus. Mice are treated with G-2-MePE as described above for locomotor activity.
# [2] = tested on: subjects with an Autism Spectrum Disorder; experiment: Placebo-controlled crossover study in subjects with Autism Spectrum Disorder (Example 16); assay type: in vivo, human
# Text: To determine whether G-2-MePE can treat symptoms of ASD, we carry out a study in human beings with ASD. Twenty subjects with an Autism Spectrum Disorder are recruited. Subjects are male and aged between 16 and 65 years (Mean=18.1 SD=3.4). All subjects have an IQ>60 and strict DSM-IV-TR diagnosis of Autistic Disorder or Asperger Disorder. Subjects also meet criteria for an Autism Spectrum Disorder according the ADI-R and ADOS-G instruments, and fulfill the proposed DSM-V criteria for and Autism Spectrum Disorder. Subjects are instructed that concomitant medications are to be stable for at least six weeks prior to study. Subjects receiving medication to treat signs of inattention are tested in the morning and instructed to take their medication in the afternoon. Subjects better treated with atypical anti-psychotic medications indicated for autism are excluded. Subjects are screened for known genetic disorders including and those with Fragile X Syndrome or tuberous sclerosis excluded. Subjects with uncontrolled epilepsy are excluded. The study is a double blind placebo-controlled crossover study with three phases. Subjects enter each phase of the crossover in a randomized order. In the test phases, subjects receive either placebo, 10 mg/kg T.I.D oral G-2-MePE for five days, or 30 mg/kg T.I.D. oral G-2-MePE. Each phase of the crossover is separated by a washout period of fourteen days. Subjects are tested at baseline using the following instruments: Wechsler IQ, Abberant Behavior Checklist Community Edition (ABC), […], Yale-Brown Obsessive Compulsive Scale (YBOCS) compulsion subscale, Social Responsiveness Scale (SRS), Clinical Global Impression of Severity (CGI-S) and their […] complete the Caregiver Strain Questionnaire (CSQ). Subjects are administered two tasks-the Reading the Mind in the Eyes Test-Revised (RMET) and an Eye Tracking (ET) task, as well as Clinical Global Impression of Improvement (CGI-I). Tasks commence two hours following administration of placebo or either dose of G-2-MePE. The RMET is a computer based task that assesses one's ability to read emotions from the eyes of subtle affective facial expressions and is a widely used test of emotion recognition in patients with autism (2001). Importantly, the RMET is capable of detecting improvement with even a single dose of a pharmacological agent (Guastella et al., 2010). Eye tracking issues are characteristic of patients with autism who spend less time looking at the eyes of photographs of human faces. Again, a single administration of a pharmacologic intervention can ameliorate eye tracking deficits in autism ([…] et al, 2010). Adverse events are also recorded using standard safety measures. Statistically, the effect of treatment with G-2-MePE is analysed by conducting a repeated analysis of covariance (ANCOVA) on the effect of treatment on change from baseline scores.
# [3] = tested on: fmr1 KO hippocampal neurons; experiment: Dendritic spine density in hippocampal primary cell cultures (microfluidic chamber, GFP); assay type: cell-based, mouse; conditions: 0.5 nM, n=3 independent experiments
# Experimental: Hippocampal cell cultures were prepared from wild-type and fmr1 KO foetal mice (14-16 d of gestation). After 3d in vitro, green fluorescent protein (GFP) was used to monitor dendritic spine density during time-course of culture (Ethell and Yamaguchi, 1999; Ethell et al., 2001, Henkemeyer et al., 2003). Dendritic spines are usually formed between 7 and 14 days in vitro (DIV). By 14 DIV most dendritic protrusions are spines. We evaluated the effect of G-2-MePE, a positive control (the mGluR5 antagonist 2-methyl-6-(phenylethynyl)-pyridine or MPEP) and vehicle controls on dendritic spine density in fmr1 KO and WT hippocampal primary cell cultures. Fmr1 KO and wild-type cultures were treated at 17 DIV.
# We used the compartmentalized culture system, a microfluidic chamber (see FIG. 31A) which opens the possibility for fast drug testing with the capacity to detect in vitro drug effects such as spine morphology, neurite outgrowth and synapse formation. The treated and untreated neurons in the compartmentalized chambers can be also being use for western blot analysis. The compartmentalised culture is a new approach to evaluate the effect of drugs on anterograde and retrograde transport of messengers and proteins relevant to FXS. Other new possibility that offers this approach its access into exclusive axon compartment, in this area immunodetection and treatments are also possible. […]
compound,measurement,setting,value
"C[C@@]1(C(=O)N[C@@H](CCC(=O)O)C(=O)O)CCCN1C(=O)CN [Example G-2-MePE, Glycyl-L-2-methylprolyl-L-glutamic acid] (HELM PEPTIDE1{G.[C[C@@]1(C(=O)[*:2])CCCN1[*:1]].E}$$$$V2.0)",number of reactive astrocytes (GFAP) in CA4 region of hippocampus,GFAP-positive astrocytes,reduced number of reactive astrocytes
same,average soma size,[1]; KO animals,increases average soma size
same,soma size,[1]; wild type animals,little or no effect
same,percent correct responses on the RMET,[2]; 30 mg/kg T.I.D. oral,increases the percent correct responses
same,Serious Adverse Events,[2]; 10 or 30 mg/kg T.I.D. oral,No Serious Adverse Events
same,adverse events / tolerability,[2]; 10 or 30 mg/kg T.I.D. oral,no more adverse events than were present during treatment with placebo; also recorded: well tolerated
same,"performance of the RMET test, overall","[2]; human, in vivo",significant overall improvement
same,time spent looking at the eye region in the ET test,"[2]; human, in vivo",significant overall improvement
same,dendritic spine density (mean±SD),[3],0.33±0.07 spines per micrometer
